{"source": "paper PMC8933493", "about": "“Mechanism and biomass association of glucuronoyl esterase: an α/β hydrolase with potential in biomass conversion” (Nature Communications, 2022)", "key": {"OtCE15A [1]": {"target": "T1, OtCE15A (Opitutus terrae, UniProt B1ZMF4)", "T1 construct": "gene Oter_0116; His6-tag; no CBM; E. coli BL21(DE3); IMAC and size exclusion; active-site Ser267, Arg268, Glu290, Asp356, His408", "T1 sequence (B1ZMF4 entry or part of it)": "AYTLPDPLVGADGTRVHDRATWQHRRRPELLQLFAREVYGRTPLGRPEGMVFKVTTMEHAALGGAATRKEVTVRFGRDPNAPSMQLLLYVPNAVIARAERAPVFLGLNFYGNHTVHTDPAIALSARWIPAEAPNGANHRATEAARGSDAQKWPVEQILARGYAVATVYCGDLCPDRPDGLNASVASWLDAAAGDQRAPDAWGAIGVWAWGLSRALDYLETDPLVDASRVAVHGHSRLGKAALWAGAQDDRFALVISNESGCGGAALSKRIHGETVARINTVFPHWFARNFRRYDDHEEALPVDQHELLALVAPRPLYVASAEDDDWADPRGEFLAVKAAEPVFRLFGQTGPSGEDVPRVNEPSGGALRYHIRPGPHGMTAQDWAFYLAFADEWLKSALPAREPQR", "assay": "continuous coupled assay, K-URONIC kit; Arrhenius analysis of kcat", "assay_type": "biochemical", "conditions": "20 to 40 °C in 5 °C steps"}, "OtCE15A [2]": {"target": "T2, OtCE15A (Opitutus terrae, UniProt B1ZMF4, R268A)", "T2 construct": "gene Oter_0116; His6-tag; no CBM; E. coli BL21(DE3); IMAC and size exclusion; active-site Ser267, Arg268, Glu290, Asp356, His408", "T2 sequence (B1ZMF4 entry or part of it R268A)": "as the sequence (B1ZMF4 entry or part of it) above, with R236A counted along it", "assay": "X-ray crystal structure after […] s soak in saturated BnzGlcA", "assay_type": "binding", "conditions": "covalent; glucuronoyl acyl-enzyme intermediate formed from the soaked substrate; pH 6.5 crystals, 10% DMSO"}, "OtCE15A [3]": {"target": "T1, OtCE15A", "assay": "continuous coupled assay, K-URONIC kit (Megazyme)", "assay_type": "biochemical", "conditions": "duplicate, at least 8 substrate concentrations", "text": "continuous coupled assay, K-URONIC kit (Megazyme) on OtCE15A"}}, "data": [{"smiles": "O=C(OCc1ccccc1)[C@H]1OC(O)[C@H](O)[C@@H](O)[C@@H]1O", "note": "(stereo partly drawn) [BnzGlcA, benzyl GlcA]", "values": [{"measurement": "continuous coupled assay, K-URONIC kit; Arrhenius analysis of kcat", "setting": "OtCE15A [1]", "result": "small substrate benzyl GlcA (BnzGlcA) by determining kcat at different temperatures"}, {"measurement": "X-ray crystal structure after 30 s soak in saturated BnzGlcA", "setting": "OtCE15A [2]", "result": "after soaking with the BnzGlcA substrate clearly shows the formation of a CI"}]}, {"smiles": "COC(=O)[C@H]1OC(O)[C@H](O)[C@@H](O)[C@@H]1O", "note": "(stereo partly drawn) [MeGlcA, GlcA methyl ester]", "values": [{"measurement": "Km", "setting": "OtCE15A [3]", "result": "2770 ± 150", "unit": "µM"}]}]}
